Laboratory results: patent US20180170941A1 (priority 2016, published 2018)
Where two headings read alike, the source gives them in different places.

Molecular target: T1, α5β3γ2 GABAA receptors (Ltk cell membranes) (Homo sapiens, UniProt P18507+P31644)
T1 construct: membranes
Assay: Binding activity of test compounds on GABAAR: inhibition of [3H]Ro15-1788 binding
Method in brief: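 Membranes from dexamethasone-induced Ltk cells (α5 line: 0.5 μM, 1 day); binding with [3H]Ro15-1788 for 1 h at 4 °C in 50 mM KH2PO4, 1 mM EDTA, 0.2 M KCl, pH 7.4, 0.2 mg/ml α5 protein. Nonspecific binding defined by 10 μM diazepam; filtration, scintillation counting, triplicates.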

[1] = GABA α5 Binding Ki Values, inhibition of [3H]Ro15-1788 binding, reported as ranges

T1 sequence (P31644 32-462): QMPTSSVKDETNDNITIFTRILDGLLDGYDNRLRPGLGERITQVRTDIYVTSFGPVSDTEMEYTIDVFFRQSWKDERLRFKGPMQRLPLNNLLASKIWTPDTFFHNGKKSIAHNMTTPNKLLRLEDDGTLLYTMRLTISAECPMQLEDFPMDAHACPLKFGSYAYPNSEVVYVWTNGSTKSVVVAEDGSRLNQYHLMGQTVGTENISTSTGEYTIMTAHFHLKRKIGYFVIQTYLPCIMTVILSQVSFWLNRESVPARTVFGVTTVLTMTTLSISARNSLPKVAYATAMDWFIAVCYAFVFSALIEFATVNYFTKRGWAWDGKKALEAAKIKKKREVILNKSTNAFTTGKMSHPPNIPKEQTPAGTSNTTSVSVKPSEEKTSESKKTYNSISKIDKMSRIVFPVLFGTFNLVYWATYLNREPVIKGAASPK
T1 sequence (P28472 26-473 partner): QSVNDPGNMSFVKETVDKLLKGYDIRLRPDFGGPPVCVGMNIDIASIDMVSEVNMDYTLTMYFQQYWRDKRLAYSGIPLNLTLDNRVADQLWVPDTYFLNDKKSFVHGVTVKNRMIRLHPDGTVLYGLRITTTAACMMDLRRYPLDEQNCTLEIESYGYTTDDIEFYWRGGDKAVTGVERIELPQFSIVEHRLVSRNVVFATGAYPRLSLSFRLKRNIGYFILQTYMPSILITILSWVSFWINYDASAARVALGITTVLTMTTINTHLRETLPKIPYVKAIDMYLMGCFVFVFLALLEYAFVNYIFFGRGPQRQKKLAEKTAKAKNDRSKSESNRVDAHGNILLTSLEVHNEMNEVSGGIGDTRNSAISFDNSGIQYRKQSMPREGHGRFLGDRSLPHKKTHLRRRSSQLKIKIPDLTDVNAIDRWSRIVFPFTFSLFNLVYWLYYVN
T1 sequence (P18507 40-475): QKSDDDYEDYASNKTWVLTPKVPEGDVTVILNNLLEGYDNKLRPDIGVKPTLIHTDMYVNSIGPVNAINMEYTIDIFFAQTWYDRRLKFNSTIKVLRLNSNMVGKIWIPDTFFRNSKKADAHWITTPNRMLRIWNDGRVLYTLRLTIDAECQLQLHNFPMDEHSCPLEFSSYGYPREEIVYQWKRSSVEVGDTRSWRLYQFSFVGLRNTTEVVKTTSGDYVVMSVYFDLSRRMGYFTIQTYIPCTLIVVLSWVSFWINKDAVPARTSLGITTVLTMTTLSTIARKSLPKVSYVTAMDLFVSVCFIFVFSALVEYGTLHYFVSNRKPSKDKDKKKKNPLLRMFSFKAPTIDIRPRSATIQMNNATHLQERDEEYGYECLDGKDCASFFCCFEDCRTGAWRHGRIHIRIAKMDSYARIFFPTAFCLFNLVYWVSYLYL

Structure (SMILES) | Ki [1] | Ki
COc1ccc2c(c1)-n1nncc1Cc1c(C3=N[C@H](C)CO3)ncn1-2 [Compound 291] | < 100 nM | 
COc1ccc2c(c1)-n1nncc1Cc1c(C3=N[C@@H](C)CO3)ncn1-2 [Compound 292] | 100 to 1000 nM | 
COCc1nnc2n1Cc1c(C#Cc3ccccc3C)ncn1-c1ccc(Cl)cc1-2 [Compound 293] | < 100 nM | 
COCc1nnc2n1Cc1c(C3=NC[C@@H](C)O3)ncn1-c1ccc(Cl)cc1-2 [Compound 294] | < 100 nM | 
COCc1nnc2n1Cc1c(C3=NC[C@H](C)O3)ncn1-c1ccc(Cl)cc1-2 [Compound 295] | < 100 nM | 
COCc1nnc2n1Cc1c(-c3ncc(C)o3)ncn1-c1ccc(Cl)cc1-2 [Compound 296] | < 100 nM | 
COCc1nnc2n1Cc1c(C3=NC(C)(C)CO3)ncn1-c1ccc(Cl)cc1-2 [Compound 297] | 100 to 1000 nM | 
COCc1nnn2c1Cc1c(C3=N[C@@H](C)CO3)ncn1-c1ccc(OC)cc1-2 [Compound 298] | 100 to 1000 nM | 
COCc1nnn2c1Cc1c(C3=N[C@@H](Cc4ccccc4)CO3)ncn1-c1ccc(Cl)cc1-2 [Compound 299] | 100 to 1000 nM | 
COCc1nnn2c1Cc1c(C3=N[C@@H](C)CO3)ncn1-c1ccc(Cl)cc1-2 [Compound 300] | 100 to 1000 nM | 
C#Cc1ccc2c(c1)-c1nnc(COC)n1Cc1c(-c3nc(-c4ccccc4)co3)ncn1-2 [Compound 302] | < 100 nM | 
Cc1cc(-c2ncn3c2Cn2c(COCC(F)(F)F)nnc2-c2cc(Cl)ccc2-3)on1 [Compound 303] | 100 to 1000 nM | 
FC(F)(F)COCc1nnc2n1Cc1c(C3=N[C@@H](c4ccccc4)CO3)ncn1-c1ccc(Cl)cc1-2 [Compound 304] | < 100 nM | 
C#Cc1nc(C)n2c1Cn1c(COC(C)C)nnc1-c1cc(Cl)ccc1-2 [Compound 305] | 100 to 1000 nM | 
CC#Cc1nc(C)n2c1Cn1c(COC(C)C)nnc1-c1cc(Cl)ccc1-2 [Compound 306] |  | > 1000 nM
CCOCc1nnc2n1Cc1c(C#Cc3ccccc3F)ncn1-c1ccc(Cl)cc1-2 [Compound 307] | < 100 nM | 
CCOC(=O)c1ncn2c1Cn1c(COCC(F)(F)F)nnc1-c1cc(Cl)ccc1-2 [Compound 308] | < 100 nM | 
FC(F)(F)COCc1nnc2n1Cc1c(C3=NCCO3)ncn1-c1ccc(Cl)cc1-2 [Compound 309] | 100 to 1000 nM | 
Cc1ccccc1C#Cc1ncn2c1Cn1c(COC(C)C)nnc1-c1cc(Cl)ccc1-2 [Compound 310] | < 100 nM | 
CCOCc1nnc2n1Cc1c(C#Cc3ccccc3C)ncn1-c1ccc(Cl)cc1-2 [Compound 311] | < 100 nM | 
Cc1coc(-c2ncn3c2Cn2c(COCC(F)(F)F)nnc2-c2cc(Cl)ccc2-3)n1 [Compound 312] | 100 to 1000 nM | 
FC(F)(F)COCc1nnc2n1Cc1c(-c3nc(-c4ccccc4)co3)ncn1-c1ccc(Cl)cc1-2 [Compound 313] | < 100 nM | 
COCc1nnc2n1Cc1c(-c3cnco3)ncn1-c1ccc(Cl)cc1-2 [Compound 314] | 100 to 1000 nM | 
CC(C)OCc1nnc2n1Cc1c(-c3cnco3)ncn1-c1ccc(Cl)cc1-2 [Compound 315] |  | > 1000 nM
CC(C)OCc1nnc2n1Cc1c(C3=NCCO3)ncn1-c1ccc(Cl)cc1-2 [Compound 316] | 100 to 1000 nM | 

Structure (SMILES) | Ki [1] | Ki
CCOCc1nnc2n1Cc1c(C3=NCCO3)ncn1-c1ccc(Cl)cc1-2 [Compound 317] | < 100 nM | 
CCOC(=O)c1ncn2c1Cc1c(C#Cc3ccccc3)nnn1-c1cc(OC)ccc1-2 [Compound 318] | 100 to 1000 nM | 
COCc1nnc2n1Cc1c(C3=N[C@@H](c4ccccc4F)CO3)ncn1-c1ccc(Cl)cc1-2 [Compound 319] | < 100 nM | 
COCc1nnc2n1Cc1c(C3=N[C@@H](c4ccc(F)cc4)CO3)ncn1-c1ccc(Cl)cc1-2 [Compound 320] | < 100 nM | 
CC(C)OCc1nnc2n1Cc1c(C3=N[C@@H](c4ccccc4F)CO3)ncn1-c1ccc(Cl)cc1-2 [Compound 321] | 100 to 1000 nM | 
CCOCc1nnc2n1Cc1c(C3=N[C@@H](c4ccccc4F)CO3)ncn1-c1ccc(Cl)cc1-2 [Compound 322] | < 100 nM | 
COCc1nnc2n1Cc1c(-c3nc(-c4ccccc4F)co3)ncn1-c1ccc(Cl)cc1-2 [Compound 323] | < 100 nM | 
COCc1nnc2n1Cc1c(-c3nc(-c4ccc(F)cc4)co3)ncn1-c1ccc(Cl)cc1-2 [Compound 324] | < 100 nM | 
CCOCc1nnc2n1Cc1c(C3=N[C@@H](c4ccc(F)cc4)CO3)ncn1-c1ccc(Cl)cc1-2 [Compound 325] | < 100 nM | 
CC(C)OCc1nnc2n1Cc1c(C3=N[C@@H](c4ccc(F)cc4)CO3)ncn1-c1ccc(Cl)cc1-2 [Compound 326] | < 100 nM | 
CC(C)OCc1nnc2n1Cc1c(-c3ncco3)ncn1-c1ccc(Cl)cc1-2 [Compound 327] | < 100 nM | 
C#Cc1ncn2c1Cn1c(COC)nnc1-c1cc(OC)ccc1-2 [Compound 328, 5-ethynyl-15-methoxy-9-(methoxymethyl)-2,4,8,10,11-pentaazatetracyclo[11.4.0.0^2,^6.0^8,^12]heptadeca-1(17),3,5,9,11,13,15-heptaene] | < 100 nM | 
COCc1nnc2n1Cc1c(C3=N[C@@H](c4ccccc4C)CO3)ncn1-c1ccc(Cl)cc1-2 [Compound 330] | < 100 nM | 
COCc1nnc2n1Cc1c(C3=N[C@@H](c4ccccc4OC)CO3)ncn1-c1ccc(Cl)cc1-2 [Compound 331] | < 100 nM | 
COCc1nnc2n1Cc1c(C3=N[C@@H](c4ccc(OC)cc4)CO3)ncn1-c1ccc(Cl)cc1-2 [Compound 332] | < 100 nM | 
COCc1nnc2n1Cc1c(C3=N[C@@H](c4cccc(OC)c4)CO3)ncn1-c1ccc(Cl)cc1-2 [Compound 333] | < 100 nM | 
COCc1nnc2n1Cc1c(C3=N[C@@H](c4ccc(Cl)cc4)CO3)ncn1-c1ccc(Cl)cc1-2 [Compound 334] | < 100 nM | 
COCc1nnc2n1Cc1c(C3=N[C@@H](c4cc(F)ccc4F)CO3)ncn1-c1ccc(Cl)cc1-2 [Compound 335] | < 100 nM | 
COCc1nnc2n1Cc1c(C3=N[C@@H](c4cccc(C(F)(F)F)c4)CO3)ncn1-c1ccc(Cl)cc1-2 [Compound 336] | 100 to 1000 nM | 
COCc1nnc2n1Cc1c(C3=N[C@@H](c4ccc(C(F)(F)F)cc4)CO3)ncn1-c1ccc(Cl)cc1-2 [Compound 337] | < 100 nM | 
COCc1nnc2n1Cc1c(C3=N[C@@H](c4cccc5ccccc45)CO3)ncn1-c1ccc(Cl)cc1-2 [Compound 338] | < 100 nM | 
CC#Cc1ncn2c1Cn1c(COC)nnc1-c1cc(Cl)ccc1-2 [Compound 339] | < 100 nM | 
COCc1nnc2n1Cc1c(C3=N[C@H](c4ccccc4)CO3)ncn1-c1ccc(OC)cc1-2 [Compound 340] | < 100 nM | 
CCOCc1nnc2n1Cc1c(-c3ncco3)ncn1-c1ccc(Cl)cc1-2 [Compound 341] | < 100 nM | 
COCc1nnc2n1Cc1c(C3=N[C@@H](c4ccccc4)CO3)ncn1-c1ccc(OC)cc1-2 [Compound 343] | < 100 nM | 

Structure (SMILES) | Ki [1] | Ki
COc1ccc2c(c1)-n1nncc1Cc1c(-c3ncco3)ncn1-2 [Compound 344] | < 100 nM | 
CCC#Cc1ncn2c1Cn1c(COC)nnc1-c1cc(Cl)ccc1-2 [Compound 345] | < 100 nM | 
COCc1nnc2n1Cc1c(C#CCc3ccccc3)ncn1-c1ccc(Cl)cc1-2 [Compound 346] | < 100 nM | 
COc1ccc2c(c1)-n1nnc(C)c1Cc1c(-c3ncco3)ncn1-2 [Compound 347] | 100 to 1000 nM | 
COCc1nnc2n1Cc1c(-c3nc4ccccc4o3)ncn1-c1ccc(Cl)cc1-2 [Compound 348] | 100 to 1000 nM | 
Clc1ccc2c(c1)-c1nnc(COc3ccccc3)n1Cc1c(-c3ncco3)ncn1-2 [Compound 349] | < 100 nM | 
Clc1ccc2c(c1)-c1nnc(COCc3ccccc3)n1Cc1c(-c3ncco3)ncn1-2 [Compound 350] | < 100 nM | 
C#Cc1ncn2c1Cn1c(COCc3ccccc3)nnc1-c1cc(Cl)ccc1-2 [Compound 351] | < 100 nM | 
CC#Cc1ncn2c1Cn1c(COCc3ccccc3)nnc1-c1cc(Cl)ccc1-2 [Compound 352] | 100 to 1000 nM | 
CC(C)[C@H]1COC(c2ncn3c2Cc2cnnn2-c2cc(Cl)ccc2-3)=N1 [Compound 363] | 100 to 1000 nM | 
CC1(C)COC(c2ncn3c2Cc2cnnn2-c2cc(Cl)ccc2-3)=N1 [Compound 364] | < 100 nM | 
COc1ccc2c(c1)-n1nncc1Cc1c(C3=N[C@@H](c4ccccc4F)CO3)ncn1-2 [Compound 366] | < 100 nM | 
COc1ccc2c(c1)-n1nncc1Cc1c(C3=N[C@@H](c4ccc(Cl)cc4)CO3)ncn1-2 [Compound 368] | < 100 nM | 
COc1ccc2c(c1)-n1nncc1Cc1c(C3=N[C@@H](c4cc(F)ccc4F)CO3)ncn1-2 [Compound 369] | < 100 nM | 
COc1ccc2c(c1)-n1nncc1Cc1c(C3=N[C@@H](c4cccc5ccccc45)CO3)ncn1-2 [Compound 370] | 100 to 1000 nM | 
COc1ccc2c(c1)-n1nncc1Cc1c(C3=N[C@@H](c4cccc(C(F)(F)F)c4)CO3)ncn1-2 [Compound 371] | 100 to 1000 nM | 
COc1ccc2c(c1)-n1nncc1Cc1c(C3=N[C@@H](c4ccc(C(F)(F)F)cc4)CO3)ncn1-2 [Compound 372] | < 100 nM | 
COc1ccc2c(c1)-n1nncc1Cc1c(C3=N[C@@H](c4ccccc4C)CO3)ncn1-2 [Compound 373] | < 100 nM | 
COc1ccc2c(c1)-n1nncc1Cc1c(C3=N[C@@H](c4ccc(Cl)cc4Cl)CO3)ncn1-2 [Compound 374] | 100 to 1000 nM | 
COc1ccc2c(c1)-n1nncc1Cc1c(C3=N[C@@H](c4ccc(F)c(C(F)(F)F)c4)CO3)ncn1-2 [Compound 375] | < 100 nM | 
Cc1nnn2c1Cc1c(C3=N[C@@H](c4ccccc4)CO3)ncn1-c1ccc(Cl)cc1-2 [Compound 376] | 100 to 1000 nM | 
Cc1nnn2c1Cc1c(C3=N[C@H](c4ccccc4)CO3)ncn1-c1ccc(Cl)cc1-2 [Compound 377] | < 100 nM | 
Cc1nnn2c1Cc1c(C3=N[C@@H](c4ccccc4F)CO3)ncn1-c1ccc(Cl)cc1-2 [Compound 378] | 100 to 1000 nM | 
Cc1nnn2c1Cc1c(C3=N[C@@H](c4ccc(F)cc4)CO3)ncn1-c1ccc(Cl)cc1-2 [Compound 379] | 100 to 1000 nM | 
COc1ccc2c(c1)-n1nncc1Cc1c(C3=N[C@@H](C(C)C)CO3)ncn1-2 [Compound 382] | 100 to 1000 nM | 
